Like-named read-outs stand apart in the source and are kept apart here.

One assay has as its target hRNase-2 (Homo sapiens, UniProt P10153). The experiment in a line: Inhibition of human ribonuclease hRNase-2, method of Example IX. It is filed as biochemical.
For assay [1], the target named is T1, RNase A (Bos taurus, UniProt P61823).
T1 sequence (P61823 27-150): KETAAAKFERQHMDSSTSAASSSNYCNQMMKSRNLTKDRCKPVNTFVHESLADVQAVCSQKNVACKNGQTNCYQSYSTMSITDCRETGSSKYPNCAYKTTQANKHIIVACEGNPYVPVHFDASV
The experiment in a line: Inhibition of RNase A activity toward CpA, HPLC method.
Experimental: Assays were performed in 60 μl of 0.2M Mes (pH 5.9) containing 50 μg/ml nuclease-free bovine serum albumin (obtained from Worthington), 20 μM CpA, and 23-320 pM RNase A. After 14-96 minutes of incubation at 25° C., substrate and products were quantitated by C18 /HPLC with a 20 minute linear gradient from 0 to 5.6% acetonitrile in 0.1% trifluoroacetic acid at a flow rate of 1.5 ml/min recording absorbance at 254 nm. Values of Km /kcat were then calculated (according to the method of Shapiro et al., 1986, Biochemistry 25:7255-7264) and plotted vs. the inhibitor concentration [I]. The Ki value is the -[I] intercept of a three- or four-point plot of Km /kcat, vs. [I] and was obtained by linear regression.

The target of assay [2] is T1, RNase A. The experiment in a line: RNA protection assay (tRNA, agarose gel electrophoresis). It is filed as biochemical, bovine. The following applies: 0.5 mM inhibitor, 0.2 nM RNase A, pH 7.0, 20 minutes, 25° C. As for the experimental part: 3 μg of tRNA were incubated in 30 μl of 20 mM Hepes, 130 mM NaCl (pH 7.0) containing 30 μg/ml bovine serum albumin, 0.2 nM RNase A and the inhibitor. After 20 minutes of incubation at 25° C., the reaction mixture was analyzed by agarose gel electrophoresis and staining with ethidium bromide. This assay was chosen since a single endonucleolytic cleavage in a polymeric RNA molecule can produce a large variation of the molecular size which can be easily detected by agarose gel electrophoresis.

The target of assay [3] is T1, RNase A. It is filed as biochemical, bovine. The settings on record: for Ki: 25° C.
Experimental: Inhibition was assessed from the dependence of 1/v0 on [I], where v0 represents the velocity measured during the initial 5-10% of the enzymatic reaction and [I] is the inhibitor concentration. Since the substrate concentration used in these assays is well below Km, the -[I] intercept of such a plot should closely approximate Ki for simple inhibition mechanisms.
Assay [4] concerns the target T1, RNase A. The following applies: pH 7; read-out: inhibition constant Ki (reported); cited from earlier work.
For another assay, the target named is T2, hRNase-4 (Homo sapiens, UniProt P34096).
T2 sequence (P34096 29-147): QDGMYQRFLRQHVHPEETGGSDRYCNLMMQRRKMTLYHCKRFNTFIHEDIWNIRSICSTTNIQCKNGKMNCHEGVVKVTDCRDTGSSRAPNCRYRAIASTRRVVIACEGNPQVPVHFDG
The experiment in a line: Inhibition of human ribonuclease hRNase-4, method of Example IX.

Where [5] appears, read: 0.2M Hepes pH 7.0, 75 μM CpG, read-out: Ki at indicated pH, pH 7.
[6] abbreviates: 0.2M Hepes pH 8.0, 75 μM CpG, read-out: Ki at indicated pH, pH 8.
The mark [7] stands for this setting: 0.2M Mes pH 5.9, 75 μM CpG, read-out: Ki at indicated pH, pH 5.9.

hRNase-2, sequence (P10153 28-161): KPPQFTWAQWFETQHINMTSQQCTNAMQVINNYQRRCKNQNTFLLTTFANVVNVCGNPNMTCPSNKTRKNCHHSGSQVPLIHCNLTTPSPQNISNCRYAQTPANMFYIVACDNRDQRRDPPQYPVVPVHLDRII
Experimental for hRNase-2: (§1) Assays were performed at 25° C. with the dinucleotide cytidylyl-(3',5')-guanosine (75 μM) as substrate in 0.2M Mes (pH 5.9), 0.2M Hepes (pH 7.0), or 0.2M Hepes (pH 8.0), containing 10 μg/ml bovine serum albumin. The decrease in absorbance at 286 nm following the addition of RNase A was continuously monitored. Inhibition was assessed from the dependence of 1/v0 on [I], where v0 represents the velocity measured during the initial 5-10% of the enzymatic reaction and [I] is the inhibitor concentration. Since the substrate concentration used in these assays is well below Km, the -[I] intercept of such a plot should closely approximate Ki for simple inhibition mechanisms.
Experimental for hRNase-4: as §1

As for `Nc1ncnc2c1ncn2[C@@H]1O[C@H](COP(=O)(O)OP(=O)(O)O)[C@@H](OP(=O)(O)O)[C@H]1O` [ppAp, 5'-diphosphoadenosine-3'-phosphate], the Ki (usually a measure of affinity in units of concentration, obtained from inhibition or displacement) is 0.25 µM on hRNase-2; 0.24 µM at RNase A [1]; 1.3 µM on RNase A [3] (setting [5]); 217 µM at RNase A [3] (setting [6]); 0.24 µM at RNase A [3] (setting [7]). Moreover, the “protection of tRNA from the catalytic action of RNase A” value (“protection of tRNA” for short) at RNase A [2] is “fully protecting”.
The compound `Cc1cn([C@H]2C[C@H](OP(=O)(O)OC[C@H]3O[C@@H](n4cnc5c(N)ncnc54)C[C@@H]3O)[C@@H](CO)O2)c(=O)[nH]c1=O` [TpdA, thymidylyl-(3'-5')-2'-deoxyadenosine] returned a Ki on RNase A [1] of 1300 µM.
For `Nc1ncnc2c1ncn2[C@@H]1O[C@H](COP(=O)(O)OP(=O)(O)O[C@H]2C[C@H](n3ccc(=O)[nH]c3=O)O[C@@H]2CO)[C@@H](OP(=O)(O)O)[C@H]1O` [dUppAp, 2'-deoxyuridine-(3'-Pβ)-5'-diphosphoadenosine-3'-phosphate], the Ki at RNase A [3] (setting [5]) was 1.1 µM; at RNase A [3] (setting [6]), 44 µM; on RNase A [3] (setting [7]), 0.13 µM.
As for uridine-vanadate, the Ki at RNase A [4] is 10 µM. On RNase A [2], the “protection of tRNA” value is listed as “partial protection”.
Regarding `Nc1ncnc2c1ncn2[C@@H]1O[C@H](COP(=O)(O)OP(=O)(O)O[C@H]2C[C@H](n3ccc(=O)[nH]c3=O)O[C@@H]2COP(=O)(O)O)[C@@H](OP(=O)(O)O)[C@H]1O` [pdUppAp, 5'-phospho-2'-deoxyuridine-(3'-Pβ)-5'-diphosphoadenosine-3'-phosphate], the Ki was 0.22 µM at hRNase-2; 0.28 µM at hRNase-4; 0.21 µM on RNase A [3] (setting [5]); 22 µM on RNase A [3] (setting [6]); 0.035 µM at RNase A [3] (setting [7]). For the same compound, the “factor by which RNase A inhibition constant is lower than that for ppAp” value was 6.9 at RNase A [3] (pH 5.9), 6.2 at RNase A [3] (pH 7) and 9.9 on RNase A [3] (pH 8).
For `Cc1cn([C@H]2C[C@H](OP(=O)(O)OP(=O)(O)OC[C@H]3O[C@@H](n4cnc5c(N)ncnc54)C[C@@H]3O)[C@@H](CO)O2)c(=O)[nH]c1=O` [TppdA, thymidine-(3'-Pβ)-5'-diphospho-2'-deoxyadenosine], the Ki at RNase A [3] (setting [7]) amounted to 3.5 µM.
For the compound `Nc1ccn([C@@H]2O[C@H](CO)[C@@H](O)[C@H]2OP(=O)(O)O)c(=O)n1` [2'-CMP, Cytidine 2'-monophosphate], the Ki on RNase A [1] was 3.1 µM; on RNase A [4] it was 147 µM. The “protection of tRNA” value at RNase A [2] is listed as “partial protection”.
On to `Cc1cn([C@H]2C[C@H](OP(=O)(O)OP(=O)(O)OC[C@H]3O[C@@H](n4cnc5c(N)ncnc54)[C@H](O)[C@@H]3OP(=O)(O)O)[C@@H](COP(=O)(O)O)O2)c(=O)[nH]c1=O` [pTppAp, 5'-phosphothymidine-(3'-Pβ)-5'-diphosphoadenosine-3'-phosphate], for which the Ki came out at 0.5 µM on hRNase-2 (pH 5.9, read-out: Ki at pH 5.9, hRNase-2); 0.27 µM on hRNase-4; 0.18 µM on RNase A [3] (setting [5]); 28 µM on RNase A [3] (setting [6]); 0.052 µM on RNase A [3] (setting [7]). Further, the results for the “factor by which RNase A inhibition constant is lower than that for ppAp” value on RNase A [3] (pH 5.9), at RNase A [3] (pH 7) and on RNase A [3] (pH 8) were 4.6, 7.2 and 7.8, respectively.
Compound `Nc1ncnc2c1ncn2[C@@H]1O[C@H](COP(=O)(O)O)[C@@H](OP(=O)(O)O)[C@H]1O` [pAp, adenosine 3',5'-diphosphate] showed a Ki at RNase A [1] of 5.6 µM.
As for `Nc1ncnc2c1ncn2[C@@H]1O[C@H](COP(=O)(O)OP(=O)(O)O[C@H]2C[C@H](n3ccc(=O)[nH]c3=O)O[C@@H]2CO)[C@@H](O)[C@H]1OP(=O)(O)O` [dUppA2'p, 2'-deoxyuridine-(3'-Pβ)-5'-diphosphoadenosine-2'-phosphate], the Ki at RNase A [3] (setting [7]) came out at 0.66 µM. Moreover, the “fold higher Ki than that for dUppAp” value at RNase A [3] (pH 5.9) is listed as 5 fold.
